We go through seven compounds from patent publication US6784137B2, “6-aryl-4-aminopicolinates and their use as herbicides” (Dow AgroSciences LLC, priority 2001, dated 2004).

Test system in one series: not given
Experiment: not given
Details: not given
As for `COC(=O)c1nc(-c2ccc(C(F)(F)F)cc2)c(F)c(N)c1F` [Compound 94, Methyl 4-amino-3,5-difluoro-6-[4-(trifluoromethyl)phenyl]pyridine-2-carboxylate], the melting point is 177 to 178 °C.

`Nc1c(F)c(-c2ccc(Cl)cc2Cl)nc(C(=O)O)c1Cl` [Compound 199, 4-Amino-3-chloro-5-fluoro-6-(2,4-dichlorophenyl)pyridine-2-carboxylic acid] returned a melting point of 152 °C.

With `Nc1cc(-c2ccc(Cl)nc2)nc(C(=O)O)c1Cl` [Compound 225, 4-Amino-3-chloro-6-(6-chloro-3-pyridinyl)pyridine-2-carboxylic acid], the melting point lay within 110 to 114 °C.

As to `Nc1cc(-c2ccc(Cl)s2)nc(C(=O)O)c1Cl` [Compound 215, 4-Amino-3-chloro-6-(5-chloro-2-thienyl)pyridine-2-carboxylic acid], the melting point fell in the range of 178 to 179 °C.

With `Nc1cc(-c2ccc(F)cc2Cl)nc(C(=O)O)c1Cl` [Compound 170, 4-Amino-3-chloro-6-(2-chloro-4-fluorophenyl)pyridine-2-carboxylic acid], the melting point is 156 to 157 °C.

Consider `COC(=O)c1nc(-c2ccc(Cl)cn2)cc(N)c1Cl` [Compound 111, Methyl 4-amino-3-chloro-6-(5-chloro-2-pyridyl)pyridine-2-carboxylate], for which the melting point is 145 to 150 °C.

Consider `COC(=O)c1nc(-c2ccc3c(c2)OCO3)c(F)c(N)c1F` [Compound 95, Methyl 4-amino-3,5-difluoro-6-(3,4-methylenedioxyphenyl)pyridine-2-carboxylate], for which the melting point was in the range of 189 to 190 °C.

Another series has as its system Barnyardgrass (Echinochloa crus-galli). In words: Postemergence herbicidal activity, greenhouse spray. The format is in vivo. The following applies: Echinochloa crus-galli, post-emergence, 336 h, Table 1; rate 125 ppm; visual score after 2 weeks; read-out: Post-emergent % control ECHCG. As to the method:
(§1) When required to ensure good germination and healthy plants, a fungicide treatment and/or other chemical or physical treatment was applied. The plants were grown for 7-21 days in a greenhouse with an approximate 15 hr photoperiod which was maintained at about 23-29° C. during the day and 22-28° C. during the night. Nutrients and water were added on a regular basis and supplemental lighting was provided with overhead metal halide 1000-Watt lamps as necessary. The plants were employed for testing when they reached the first or second true leaf stage. A weighed amount, determined by the highest rate to be tested, of each test compound was placed in a 20 mL glass vial and was dissolved in 4 mL of a 97:3 v/v (volume/volume) mixture of acetone and dimethyl sulfoxide (DMSO) to obtain concentrated stock solutions. […] The concentrated stock solutions obtained were diluted with an aqueous mixture containing acetone, water, isopropyl alcohol, DMSO, At plus 411 F crop oil concentrate, and Triton X-155 surfactant in a 48.5:39:10:1.5:1.0:0.02 v/v ratio to obtain spray solutions of known concentration. The solutions containing the highest concentration to be tested were prepared by diluting 2 mL aliquots of the stock solution with 13 mL of the mixture and lower concentrations were prepared by serial dilution of the stock solution. Approximately 1.5 mL aliquots of each solution of known concentration were sprayed evenly onto each of the test plant pots using a DeVilbiss atomizer driven by compressed air pressure of 2 to 4 psi (140 to 280 kiloPascals) to obtain thorough coverage of each plant. Control plants were sprayed in the same manner with the aqueous mixture. […] The treated plants and control plants were placed in a greenhouse as described above and watered by sub-irrigation to prevent wash-off of the test compounds.
Turning to `Nc1cc(-c2ccc(Cl)nc2)nc(C(=O)O)c1Cl` [Compound 225, 4-Amino-3-chloro-6-(6-chloro-3-pyridinyl)pyridine-2-carboxylic acid], the pest or weed control at 125 ppm came to 40%.

Regarding `Nc1cc(-c2ccc(Cl)s2)nc(C(=O)O)c1Cl` [Compound 215, 4-Amino-3-chloro-6-(5-chloro-2-thienyl)pyridine-2-carboxylic acid], the pest or weed control at 125 ppm was 70%.

For the compound `COC(=O)c1nc(-c2ccc3c(c2)OCO3)c(F)c(N)c1F` [Compound 95, Methyl 4-amino-3,5-difluoro-6-(3,4-methylenedioxyphenyl)pyridine-2-carboxylate], the pest or weed control at 125 ppm was determined as 70%.

The series is the same for the next values; noted with them: Echinochloa crus-galli, post-emergence, 336 h, Table 1; rate 250 ppm; visual score after 2 weeks; read-out: Post-emergent % control ECHCG.
On to `Nc1c(F)c(-c2ccc(Cl)cc2Cl)nc(C(=O)O)c1Cl` [Compound 199, 4-Amino-3-chloro-5-fluoro-6-(2,4-dichlorophenyl)pyridine-2-carboxylic acid], for which the pest or weed control at 250 ppm was 85%.

Consider `COC(=O)c1nc(-c2ccc(Cl)cn2)cc(N)c1Cl` [Compound 111, Methyl 4-amino-3-chloro-6-(5-chloro-2-pyridyl)pyridine-2-carboxylate], for which the pest or weed control at 250 ppm stood at 70%.

Staying with this series, now noted: Echinochloa crus-galli, post-emergence, 336 h, Table 1; rate 500 ppm; visual score after 2 weeks; read-out: Post-emergent % control ECHCG.
For `COC(=O)c1nc(-c2ccc(C(F)(F)F)cc2)c(F)c(N)c1F` [Compound 94, Methyl 4-amino-3,5-difluoro-6-[4-(trifluoromethyl)phenyl]pyridine-2-carboxylate], the pest or weed control at 500 ppm turned out to be 90%.

For the compound `Nc1cc(-c2ccc(F)cc2Cl)nc(C(=O)O)c1Cl` [Compound 170, 4-Amino-3-chloro-6-(2-chloro-4-fluorophenyl)pyridine-2-carboxylic acid], the pest or weed control at 500 ppm came to 80%.

Staying with this series, now noted: Echinochloa crus-galli, post-emergence, 336 h, Table 2; rate 125 ppm; visual score after 2 weeks; read-out: Post-emergent % control ECHCG.
Consider `Nc1c(F)c(-c2ccc(Cl)cc2Cl)nc(C(=O)O)c1Cl` [Compound 199, 4-Amino-3-chloro-5-fluoro-6-(2,4-dichlorophenyl)pyridine-2-carboxylic acid], for which the pest or weed control at 125 ppm amounted to 80%.

The test system of a further series is Yellow nutsedge (Cyperus esculentus). The series is described as above. Type of series: in vivo. The following applies: Cyperus, post-emergence, 336 h, Table 1; rate 125 ppm; visual score after 2 weeks; read-out: Post-emergent % control CYPES. As to the method:
as §1
On to `Nc1cc(-c2ccc(Cl)nc2)nc(C(=O)O)c1Cl` [Compound 225, 4-Amino-3-chloro-6-(6-chloro-3-pyridinyl)pyridine-2-carboxylic acid], for which the pest or weed control at 125 ppm was found to be 60%.

In the case of `Nc1cc(-c2ccc(Cl)s2)nc(C(=O)O)c1Cl` [Compound 215, 4-Amino-3-chloro-6-(5-chloro-2-thienyl)pyridine-2-carboxylic acid], the pest or weed control at 125 ppm amounted to 70%.

Turning to `COC(=O)c1nc(-c2ccc3c(c2)OCO3)c(F)c(N)c1F` [Compound 95, Methyl 4-amino-3,5-difluoro-6-(3,4-methylenedioxyphenyl)pyridine-2-carboxylate], the pest or weed control at 125 ppm was 60%.

Still in this series, the particulars now being: Cyperus, post-emergence, 336 h, Table 1; rate 250 ppm; visual score after 2 weeks; read-out: Post-emergent % control CYPES.
As to `Nc1c(F)c(-c2ccc(Cl)cc2Cl)nc(C(=O)O)c1Cl` [Compound 199, 4-Amino-3-chloro-5-fluoro-6-(2,4-dichlorophenyl)pyridine-2-carboxylic acid], the pest or weed control at 250 ppm worked out at 95%.

Regarding `COC(=O)c1nc(-c2ccc(Cl)cn2)cc(N)c1Cl` [Compound 111, Methyl 4-amino-3-chloro-6-(5-chloro-2-pyridyl)pyridine-2-carboxylate], the pest or weed control at 250 ppm was 80%.

Still in this series, the particulars now being: Cyperus, post-emergence, 336 h, Table 1; rate 500 ppm; visual score after 2 weeks; read-out: Post-emergent % control CYPES.
As for `COC(=O)c1nc(-c2ccc(C(F)(F)F)cc2)c(F)c(N)c1F` [Compound 94, Methyl 4-amino-3,5-difluoro-6-[4-(trifluoromethyl)phenyl]pyridine-2-carboxylate], the pest or weed control at 500 ppm was determined as 90%.

For `Nc1cc(-c2ccc(F)cc2Cl)nc(C(=O)O)c1Cl` [Compound 170, 4-Amino-3-chloro-6-(2-chloro-4-fluorophenyl)pyridine-2-carboxylic acid], the pest or weed control at 500 ppm came to 70%.

The series is the same for the next values; noted with them: Cyperus, post-emergence, 336 h, Table 2; rate 125 ppm; visual score after 2 weeks; read-out: Post-emergent % control CYPES.
For `Nc1c(F)c(-c2ccc(Cl)cc2Cl)nc(C(=O)O)c1Cl` [Compound 199, 4-Amino-3-chloro-5-fluoro-6-(2,4-dichlorophenyl)pyridine-2-carboxylic acid], the pest or weed control at 125 ppm came to 90%.

A further series deals with Cocklebur (Xanthium strumarium). The series is described as above. The following applies: Xanthium strumarium, post-emergence, 336 h; Table 1; rate 125 ppm; visual score after 2 weeks; read-out: Post-emergent % control XANST. The format is in vivo. The procedure: as §1
On to `Nc1cc(-c2ccc(Cl)nc2)nc(C(=O)O)c1Cl` [Compound 225, 4-Amino-3-chloro-6-(6-chloro-3-pyridinyl)pyridine-2-carboxylic acid], for which the pest or weed control at 125 ppm was 90%.

Take `Nc1cc(-c2ccc(Cl)s2)nc(C(=O)O)c1Cl` [Compound 215, 4-Amino-3-chloro-6-(5-chloro-2-thienyl)pyridine-2-carboxylic acid]: the pest or weed control at 125 ppm amounted to 100%.

On to `COC(=O)c1nc(-c2ccc3c(c2)OCO3)c(F)c(N)c1F` [Compound 95, Methyl 4-amino-3,5-difluoro-6-(3,4-methylenedioxyphenyl)pyridine-2-carboxylate], for which the pest or weed control at 125 ppm amounted to 80%.

The series is the same for the next values; noted with them: Xanthium strumarium, post-emergence, 336 h; Table 1; rate 250 ppm; visual score after 2 weeks; read-out: Post-emergent % control XANST.
On to `Nc1c(F)c(-c2ccc(Cl)cc2Cl)nc(C(=O)O)c1Cl` [Compound 199, 4-Amino-3-chloro-5-fluoro-6-(2,4-dichlorophenyl)pyridine-2-carboxylic acid], for which the pest or weed control at 250 ppm stood at 100%.

In the case of `COC(=O)c1nc(-c2ccc(Cl)cn2)cc(N)c1Cl` [Compound 111, Methyl 4-amino-3-chloro-6-(5-chloro-2-pyridyl)pyridine-2-carboxylate], the pest or weed control at 250 ppm was 100%.

Staying with this series, now noted: Xanthium strumarium, post-emergence, 336 h; Table 1; rate 500 ppm; visual score after 2 weeks, 0 no injury, 100 complete kill; read-out: Post-emergent % control XANST.
As for `COC(=O)c1nc(-c2ccc(C(F)(F)F)cc2)c(F)c(N)c1F` [Compound 94, Methyl 4-amino-3,5-difluoro-6-[4-(trifluoromethyl)phenyl]pyridine-2-carboxylate], the pest or weed control at 500 ppm was 100%.

As for `Nc1cc(-c2ccc(F)cc2Cl)nc(C(=O)O)c1Cl` [Compound 170, 4-Amino-3-chloro-6-(2-chloro-4-fluorophenyl)pyridine-2-carboxylic acid], the pest or weed control at 500 ppm was 100%.

Still in this series, the particulars now being: Xanthium strumarium, post-emergence, 336 h; Table 2; rate 125 ppm; visual score after 2 weeks; read-out: Post-emergent % control XANST.
In the case of `Nc1c(F)c(-c2ccc(Cl)cc2Cl)nc(C(=O)O)c1Cl` [Compound 199, 4-Amino-3-chloro-5-fluoro-6-(2,4-dichlorophenyl)pyridine-2-carboxylic acid], the pest or weed control at 125 ppm turned out to be 100%.

In another series the test system is Lambsquarter (Chenopodium album). The series is described as above. The format is in vivo. Conditions: Chenopodium album, post-emergence, 336 h; Table 1; rate 125 ppm; visual score after 2 weeks; read-out: Post-emergent % control CHEAL. The procedure: as §1
For the compound `Nc1cc(-c2ccc(Cl)nc2)nc(C(=O)O)c1Cl` [Compound 225, 4-Amino-3-chloro-6-(6-chloro-3-pyridinyl)pyridine-2-carboxylic acid], the pest or weed control at 125 ppm amounted to 70%.

On to `Nc1cc(-c2ccc(Cl)s2)nc(C(=O)O)c1Cl` [Compound 215, 4-Amino-3-chloro-6-(5-chloro-2-thienyl)pyridine-2-carboxylic acid], for which the pest or weed control at 125 ppm is 100%.

Consider `COC(=O)c1nc(-c2ccc3c(c2)OCO3)c(F)c(N)c1F` [Compound 95, Methyl 4-amino-3,5-difluoro-6-(3,4-methylenedioxyphenyl)pyridine-2-carboxylate], for which the pest or weed control at 125 ppm came to 90%.

Still in this series, the particulars now being: Chenopodium album, post-emergence, 336 h; Table 1; rate 250 ppm; visual score after 2 weeks; read-out: Post-emergent % control CHEAL.
With `Nc1c(F)c(-c2ccc(Cl)cc2Cl)nc(C(=O)O)c1Cl` [Compound 199, 4-Amino-3-chloro-5-fluoro-6-(2,4-dichlorophenyl)pyridine-2-carboxylic acid], the pest or weed control at 250 ppm stood at 100%.

On to `COC(=O)c1nc(-c2ccc(Cl)cn2)cc(N)c1Cl` [Compound 111, Methyl 4-amino-3-chloro-6-(5-chloro-2-pyridyl)pyridine-2-carboxylate], for which the pest or weed control at 250 ppm was found to be 100%.

Staying with this series, now noted: Chenopodium album, post-emergence, 336 h; Table 1; rate 500 ppm; visual score after 2 weeks; read-out: Post-emergent % control CHEAL.
For `COC(=O)c1nc(-c2ccc(C(F)(F)F)cc2)c(F)c(N)c1F` [Compound 94, Methyl 4-amino-3,5-difluoro-6-[4-(trifluoromethyl)phenyl]pyridine-2-carboxylate], the pest or weed control at 500 ppm was 100%.

For `Nc1cc(-c2ccc(F)cc2Cl)nc(C(=O)O)c1Cl` [Compound 170, 4-Amino-3-chloro-6-(2-chloro-4-fluorophenyl)pyridine-2-carboxylic acid], the pest or weed control at 500 ppm was determined as 100%.

Still in this series, the particulars now being: Chenopodium album, post-emergence, 336 h; Table 2; rate 125 ppm; visual score after 2 weeks; read-out: Post-emergent % control CHEAL.
Turning to `Nc1c(F)c(-c2ccc(Cl)cc2Cl)nc(C(=O)O)c1Cl` [Compound 199, 4-Amino-3-chloro-5-fluoro-6-(2,4-dichlorophenyl)pyridine-2-carboxylic acid], the pest or weed control at 125 ppm amounted to 100%.

The melting point is the temperature of the solid-liquid transition.
